Reference: patent US20230000769A1, “OIL-IN-WATER EMULSION FORMULATIONS FOR DELIVERY OF ACTIVE OR THERAPEUTIC AGENTS” (IMMUNOVACCINE TECHNOLOGIES INC., priority 2019, published 2023)

Assay: HPLC analysis of oil (top) and aqueous (bottom) layers of centrifuged O/W emulsions
Type: physicochemical
Conditions: control or Bottom layer-Water; target 8.00 mg/mL
Description: O/W emulsions were prepared by combining the hydrophobic phase (DPX-empty in Montanide™ ISA 51 oil) and the aqueous phase (containing an aqueous phase agent) with 120 passes through a Vygon™ connector.
For analysis by High Performance Liquid Chromatography (HPLC), the O/W emulsion formulations were centrifuged at 15,000 RPM for 30 minutes to separate oil (top) and aqueous (bottom) layers, and samples from both layers were analysed. Samples were prepared using n-Butanol Extraction method (for oil phase) and Total solubilization method (for aqueous phase). n-Butanol Extraction method (for oil phase): To 100 μL of the top layer oil sample 300 μL of 0.1M NaHCO3 and 400 μL of water saturated 1-Butanol were added. Sample was vortexed to mix and centrifuged for 2 mins at 5000 RPM. The bottom layer was taken for analysis. Total solubilization method (for aqueous phase): To 75 μL of the bottom layer aqueous sample, up to 5 mL of mobile phase A was added. The mobile phases used for cyclophosphamide, oligonucleotide and anti-CTLA4 analysis were as follows, Cyclophosphamide: Mobile Phase A: 30% acetonitrile in water; Mobile Phase B: methanol. Oligonucleotide: Mobile Phase A: mix of tris, acetonitrile, water; Mobile Phase B: mix of tris, NaCL, acetonitrile, water. Anti-CTLA4: Mobile Phase A: 0.1% TFA/water; Mobile Phase B: 0.1% TFA/acetonitrile; Mobile Phase C: methanol. […]

Structure (SMILES): O=P1(N(CCCl)CCCl)NCCCO1 (stereo not shown) [Cyclophosphamide control, N,N-bis(2-chloroethyl)-1,3,2-oxazaphosphinan-2-amine 2-oxide]
- Cyclophosphamide Concentration: 6.76 mg/mL
